Measured values from article PMC7022378, “Structural Analyses on the Deamidation of N-Terminal Asn in the Human N-Degron Pathway” (Biomolecules, 2020).
Where a chain is given by its changes, count along the chain named.

Legend:
Format in all cases: biochemical
NTAN1 E260A = biological target: T1, NTAN1 E260A (Homo sapiens, UniProt Q96AB6, E260A); test: In vitro deamidation assay, NTAN1 E260A mutant; conditions: substrate NRAAA, 100 μM, 37 °C, pH 7.0, LC-MS (Figure 3d); three independent experiments
T1 construct: The gene for full-length NTAN1 was cloned into pET-21a(+); made in house; host or cells: E. coli Rosetta 2(DE3)
T1 sequence (Q96AB6 1-310 E260A): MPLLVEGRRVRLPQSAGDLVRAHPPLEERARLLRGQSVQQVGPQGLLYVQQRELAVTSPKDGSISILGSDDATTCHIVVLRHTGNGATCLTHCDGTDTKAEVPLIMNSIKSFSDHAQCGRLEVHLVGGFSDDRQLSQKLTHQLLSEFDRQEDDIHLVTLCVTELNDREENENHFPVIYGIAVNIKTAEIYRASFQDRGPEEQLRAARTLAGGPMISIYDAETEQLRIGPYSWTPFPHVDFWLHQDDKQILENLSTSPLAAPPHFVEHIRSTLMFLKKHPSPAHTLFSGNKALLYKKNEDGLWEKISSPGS
From the text: (§1) NTAN1 mutants were constructed using QuikChange Ⅱ Site-Directed Mutagenesis Kit (Agilent Technologies, Santa Clara, CA, USA). NTAN1 mutants, Q51A, S69A, T73A, T74A, C75A, H92A, S254A, T255A, and E260A were generated. The mutants were expressed and purified as for NTAN1.
(§2) Peptides with Nt-Asn which mimic potential substrates of NTAN1 were synthesized: NRA, NRAA, NRAAA, NRQVA, NRQVAA, NRQVAAA, NFAAR, NLAAR, NRAAR, NAAAR, NNAAR, NPAAR, NGAAR, and NDAAR. Non-Nt-Asn peptides, QRAAA and VRAAA, were also synthesized. NTAN1 (at concentrations of 0.5 μM, 0.16 μM, or 0.04 μM) and the peptides (at a concentration of 100 μM) were mixed and incubated at 37 °C in a buffer containing 200 mM NaCl and 10 mM HEPES-NaOH (pH 7.0). […] The deamidation coefficient of peptides catalyzed by NTAN1 was assessed by the slope of exponential curve drawn from the concentration of the substrate over incubation time.
(§3) The peptides were quantified by an LC-MS system (1260 Infinity/6430 Triple Quad, Agilent Technologies) equipped with a binary pump (G1312B), a thermostated column compartment (G1316C), a thermostat (G1330B), and an autosampler (G1367E). […] The data acquisition and processing were performed by using MassHunter Workstation Software Quantitative Analysis (Version B.05.00; Agilent Technologies, Santa Clara, CA, USA). […]

NTAN1 T73A = biological target: T2, NTAN1 T73A (Homo sapiens, UniProt Q96AB6, T73A); test: In vitro deamidation assay, NTAN1 T73A mutant; conditions: substrate NRAAA, 100 μM, 37 °C, pH 7.0, LC-MS (Figure 3g); three independent experiments
T2 construct: The gene for full-length NTAN1 was cloned into pET-21a(+); made in house; host or cells: E. coli Rosetta 2(DE3)
T2 sequence (Q96AB6 1-310 T73A): T1 sequence (Q96AB6 1-310 E260A) with T73A, A260E
From the text: as §1, §2, §3

NTAN1 T74A = biological target: T3, NTAN1 T74A (Homo sapiens, UniProt Q96AB6, T74A); test: In vitro deamidation assay, NTAN1 T74A mutant; conditions: substrate NRAAA, 100 μM, 37 °C, pH 7.0, LC-MS (Figure 3f); three independent experiments
T3 construct: The gene for full-length NTAN1 was cloned into pET-21a(+); made in house; host or cells: E. coli Rosetta 2(DE3)
T3 sequence (Q96AB6 1-310 T74A): T1 sequence (Q96AB6 1-310 E260A) with T74A, A260E
From the text: as §1, §2, §3

NTAN1 T255A = biological target: T4, NTAN1 T255A (Homo sapiens, UniProt Q96AB6, T255A); test: In vitro deamidation assay, NTAN1 T255A mutant; conditions: substrate NRAAA, 100 μM, 37 °C, pH 7.0, LC-MS (Figure 3c); three independent experiments
T4 construct: The gene for full-length NTAN1 was cloned into pET-21a(+); made in house; host or cells: E. coli Rosetta 2(DE3)
T4 sequence (Q96AB6 1-310 T255A): T1 sequence (Q96AB6 1-310 E260A) with T255A, A260E
From the text: as §1, §2, §3

Deamidation activity of NTAN1 E260A (NTAN1 E260A): lost its deamidation activity | Enzymatic activity of NTAN1 T73A (NTAN1 T73A): abolished | Enzymatic activity of NTAN1 T74A (NTAN1 T74A): abolished | Enzymatic activity of NTAN1 T255A (NTAN1 T255A): abolished
Substance: NRAAA [synthesized peptide with Nt-Asn, 5 mer model substrate of NTAN1]
